Here are results for one substance from patent US9260504B2, “N- and C-terminal substituted antagonistic analogs of GH-RH” (University of Miami, priority 2008, dated 2016).

Marks after values point to notes of the source that are not given here.

Common to all, as to assay type: in vivo
The test system of test [1] is PC-3 human hormone-independent prostate cancer. Briefly: PC-3 human prostate cancer xenografts in nude mice, Experiment 4. The settings on record: 10 μg/day s.c. As for the experimental part: (§1) Male nude mice were implanted s.c. with 3 mm^3 pieces of PC-3 human hormone-independent prostate cancer tissue on both flanks. When tumors reached a volume of approximately 50 mm^3, the mice were divided into 12 experimental groups with 8 to 10 animals in each group and received single daily injections for 28 days as follows: 1. Control (vehicle solution); 2. JMR-132 (10 μg/day s.c.); 3. Peptide 11113 (2 μg/day s.c.); 4. Peptide 11119 (2 μg/day s.c.); 5. Peptide 11209 (2 μg/day s.c.); 6. Peptide 11313 (2 μg/day s.c.); 7. Peptide 11408 (2 μg/day s.c.); 8. Peptide 11435 (2 μg/day s.c.); 9. Peptide 11457 (2 μg/day s.c.); 10. Peptide 11459 (2 μg/day s.c.); 11. Peptide 11469 (2 μg/day s.c.); 12. Peptide 11491 (2 μg/day s.c.).
(§2) Tumor volumes were measured once a week. The experiment was ended on day 28 by sacrificing the mice under Isoflurane anesthesia. Resulting tumors were cleaned, weighed, and snap-frozen until further analyses. Statistical analyses of the measurement results were done by two-tailed t-test, p<0.05 being considered significant.
All experimental details of Experiment 4 are the same as for Experiment 3, with the following difference. When tumors reached a volume of approximately 50 mm^3, the mice were divided into 11 experimental groups with 8 to 10 animals in each group and received single daily injections for 46 days as follows: 1. Control (vehicle solution); 2. JMR-132 (10 μg/day s.c.); 3. Peptide 11123 (2 μg/day s.c.); 4. Peptide 11125 (2 μg/day s.c.); 5. Peptide 11213 (2 μg/day s.c.); 6. Peptide 11433 (2 μg/day s.c.); 7. Peptide 11473 (2 μg/day s.c.); 8. Peptide 11485 (2 μg/day s.c.); 9. Peptide 11497 (2 μg/day s.c.); 10. Peptide 11499 (2 μg/day s.c.); 11. Peptide 11521 (2 μg/day s.c.). Tumor volumes were measured once a week. The experiment was ended on day 46 by sacrificing the mice under Isoflurane anesthesia. Resulting tumors were cleaned, weighed, and snap-frozen until further analyses. Statistical analyses of the measurement results were done by two-tailed t-test, p<0.05 being considered significant.
For orientation: In xenograft studies the graft and the host belong to different species.

Test [2] has as its system NCI-N87 human gastric cancer. The experiment in a line: NCI-N87 human gastric cancer xenografts in nude mice. The settings on record: 10 μg/day s.c. As for the experimental part: NCI-N87 cancers were transplanted s.c. into both flank areas of 30 female nude mice. The mice were randomly assigned into 4 experimental groups with 6 to 9 animals in each group and received single daily injections for 77 days as follows: 1. Control (vehicle solution); 2. JMR-132 (10 μg/day s.c.); 3. Peptide 1109 (10 μg/day s.c.); 4. Peptide 11479 (10 μg/day s.c.). Tumor volumes were measured once a week. The experiment was ended on day 77 by sacrificing the mice under Isoflurane anesthesia. Resulting tumors were cleaned, weighed, and snap-frozen until further analyses. Statistical analyses of the measurement results were done by two-tailed t-test, p<0.05 being considered significant. Data are presented as the means±S.E.

Test [3] has as its system PC-3 human hormone-independent prostate cancer. The experiment in a line: PC-3 human prostate cancer xenografts in nude mice, Experiment 3. The settings on record: 10 μg/day s.c., 28 days. As for the experimental part: as §1, §2
For test [4], the system named is Panc-1 human pancreatic cancer. The experiment in a line: Panc-1 human pancreatic cancer xenografts in nude mice. The settings on record: 10 μg/day s.c. for 36 days. The protocol:
Panc-1 cancers were transplanted s.c. into both flank areas of 60 female nude mice, and allowed to grow for 105 days before starting the treatment with GH-RH antagonists. The mice were randomly assigned into 3 experimental groups with 8 animals in each group and received single daily injections for 36 days as follows: 1. Control (vehicle solution); 2. JMR-132 (10 μg/day s.c.); 3. Peptide 11457 (10 μg/day s.c.). Tumor volumes were measured once a week. The experiment was ended on day 82 by sacrificing the mice under Isoflurane anesthesia. Resulting tumors were cleaned, weighed, and snap-frozen until further analyses. Statistical analyses of the measurement results were done by two-tailed t-test, p<0.05 being considered significant. Data are presented as the means±S.E.

In test [5] the test system is PC-3 human hormone-independent prostate cancer. The experiment in a line: PC-3 human prostate cancer xenografts in nude mice, Experiment 2. The settings on record: 10 μg/day s.c. As for the experimental part: Male nude mice were implanted s.c. with 3 mm^3 pieces of PC-3 human hormone-independent prostate cancer tissue on both flanks. When tumors reached a volume of approx. 50 mm^3, the mice were divided into 4 experimental groups with 8 to 10 animals in each group and received single daily injections for 35 days as follows: 1. Control (vehicle solution); 2. JMR-132 (10 μg/day s.c.); 3. Peptide 1109 (10 μg/day s.c.); 4. Peptide 11111 (10 μg/day s.c.); Tumor volumes were measured once a week. The experiment was ended on day 35 by sacrificing the mice under Isoflurane anesthesia. Resulting tumors were cleaned, weighed, and snap-frozen until further analyses. Statistical analyses of the measurement results were done by two-tailed t-test, p<0.05 being considered significant. Data are presented as the means±S.E.
Experiment 2 was similar to Experiment 1. Experiment 2 was started when PC-3 tumors had grown to approximately 50 mm^3 in volume. At this time, the animals were divided into 5 experimental groups with 8 animals in each group, and received single daily injections for 14 days as follows: 1. Control (vehicle solution); 2. JMR-132 (10 μg/day s.c.); 3. Peptide 1109 (5 μg/day s.c.); 4. Peptide 11109 (5 μg/day s.c.); 5. Peptide 11109 (2 μg/day s.c.). Further details of Experiment 2 are the same as for Experiment 1

Consider “[PhAc^0-Tyr^1, D-Arg^2, Cpa^6, Ala^8, Har^9, Tyr(Me)^10, His^11, Abu^15, His^20, Nle^27, D-Arg^28, Har^29]hGH-RH(1-29)NH2 [JMR-132, reference compound]”, for which the “Tumor growth after 28 days (%)” value in test [1] was determined as 1004%. Also, the “Tumor growth after 46 days (%)” value in test [1] was 1848%. Besides, the figures for the “Inhibition (%)” value in test [1] (after 28 days), in test [1] (after 46 days) and in test [5] (tumor growth after 2 weeks) were 26.62%, 44.52% and 39.61%, respectively. In addition, the “Effect on the growth of NCI-N87 cancers” value in test [2] (77 days) was “not effective”. Also, the “Number of regressing tumors” value in test [2] (77 days) came to 2. Moreover, the “Tumor growth after 77 days (%)” value in test [2] (77 days, means±S.E.) came out at 409 ± 78%. For the same substance, the “Tumor weights” value in test [2] (day 77, means±S.E.) came out at 407 ± 175 mg; in test [4] (end of experiment day 82), 185 ± 105 mg. In addition, in test [2] (calculated without the regressing tumors), the “Tumor doubling time” value is on record as 40.8 ± 5.9 days. Further, the “Tumor growth inhibition after 4 weeks (%)” value in test [3] turned out to be 28.11%. Also, in test [4] (means±S.E.), the “Tumor growth from day 1 to day 82 (%)” value is reported as 1730 ± 350%. For the same substance, in test [4] (means±S.E.), the “Tumor volume on day 82 (mm^3)” value is reported as 511 ± 221* mm^3. The “Effect on the growth of Panc-1 human pancreatic cancers” value in test [4] (observed for at least 82 days) is “less effective”. The “Tumor growth after 2 weeks (%)” value in test [5] (14 days) is recorded as 432%.
